Measured values from patent publication US20100061948A1, “COMPOSITION FOR SKIN WHITENING COMPRISING ARTEMISININE” (priority 2007, published 2010).

Experiments:
[1] = system: Murine melanoma (B16 F10) cells; test: Inhibitory effect on melanin synthesis in murine B16 melanoma cells; format: cell-based; conditions: Mus musculus, 72 h, 3 days, read-out: Inhibition rate of melanin synthesis (%)
Experimental: In order to confirm the inhibitory effect of artemisinine on melanin synthesis, murine B16 melanoma cells were used to perform the following experiment.
Artemisinine used in the present experiment was purchased from Sigma.
Murine melanoma (B16 F10) cells were inoculated on 6 well plates containing DMEM media supplemented with 10% FBS (fetal bovine serum) (1×10^5 per well), and cultured in 5% CO2 at37° C. until reaching about 80% confluency. Then, media was removed from the cells, replaced with fresh media, and cultured in 5% CO2 at 37° C. for 3 days. […] Media was removed from the cells, and the cells were washed with PBS (phosphate buffered saline), followed by trypsin treatment. The cells were recovered, and counted using a hemocytometer. Then, the cells were centrifuged at 5,000 to 10,000 rpm for 10 min, and the supernatant was removed to obtain a pellet. The pellet was dried at 60° C., and suspended in 100 […] of 1 M sodium hydroxide solution containing 10% DMSO in a 60° C. water bath to obtain melanin in the cells. Absorbance was determined at 490 nm using a microplate reader to assess the melanin content per cell. As a control group, a known inhibitor of melanin synthesis, arbutin, was used.

[2] = target: T1, tyrosinase (Mus musculus, UniProt P11344); test: Inhibitory effect on tyrosinase activity in murine B16 melanoma cells; format: cell-based; conditions: B16 F10 cells, 3 days, read-out: Inhibition rate of tyrosinase activity (%)
T1 construct: endogenous in cells; host or cells: murine melanoma B16 F10 cells
T1 sequence (P11344 19-533): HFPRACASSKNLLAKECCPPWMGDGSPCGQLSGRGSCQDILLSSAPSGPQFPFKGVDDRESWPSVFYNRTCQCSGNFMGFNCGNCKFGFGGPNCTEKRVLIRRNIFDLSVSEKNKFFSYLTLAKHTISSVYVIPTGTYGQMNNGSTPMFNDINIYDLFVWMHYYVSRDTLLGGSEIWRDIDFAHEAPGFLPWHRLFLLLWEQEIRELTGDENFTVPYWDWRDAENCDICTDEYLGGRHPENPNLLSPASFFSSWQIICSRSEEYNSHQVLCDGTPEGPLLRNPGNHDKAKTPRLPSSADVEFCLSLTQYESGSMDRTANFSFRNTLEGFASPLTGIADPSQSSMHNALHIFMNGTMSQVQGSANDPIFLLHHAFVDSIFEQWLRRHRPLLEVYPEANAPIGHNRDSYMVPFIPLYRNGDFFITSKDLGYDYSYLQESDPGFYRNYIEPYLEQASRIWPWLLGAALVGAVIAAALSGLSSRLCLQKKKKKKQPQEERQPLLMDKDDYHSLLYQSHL
Experimental: In order to confirm the inhibitory effect of artemisinine on tyrosinase activity, murine B16 melanoma cells were used to perform the following experiment.
Murine melanoma (B16 F10) cells were inoculated on 6 well plates containing DMEM media supplemented with 10% FBS (1×10^5 per well), and cultured in 5% CO2 at 37° C. until reaching about 80% confluency. Then, media was removed from the cells, replaced with fresh media, and cultured in 5% CO2 at37° C. for 3 days. […] Media was removed from the cells, and the cells were washed with PBS, followed by trypsin treatment. The cells were recovered, and counted using a hematocytometer. Then, the cells were centrifuged at 5,000 to 10,000 rpm for 10 min, and the supernatant was removed to obtain a pellet. The pellet was suspended in a lysis buffer, and centrifuged at 12,000 rpm for 10 min to collect the supernatant. Absorbance was determined at 492 nm using a microplate reader to assess the tyrosinase activity per cell. As a control group, arbutin was used.

[3] = system: brown guinea pigs (Tortoiseshell guinea pigs); test: Whitening effect on UV-induced pigmentation in brown guinea pigs (chromameter L*); format: in vivo; conditions: topical once or twice a day for 50 days, UV-pigmented guinea pig skin
Description: In order to confirm the whitening effect of artemisinine in animals, brown guinea pigs (Tortoiseshell guinea pigs), which are known to increase pigmentation upon exposure to UV like human, were used to perform the following experiment.
(§1) To cause pigmentation in the brown guinea pig by UV, light-shielding aluminum foil with windows of 3×3 cm^2 was adhered to hair-removed abdominal skin of brown guinea pig, and then UV light was irradiated thereon with a SE lamp (wavelength 290-320 nm, Toshiba) (total irradiation energy=1350 mJ/cm^2). After UV irradiation, the aluminum foil was removed, and then the samples (artemisinine and arbutin) were applied as follows. […] From the maximum, each sample was applied. Applications were performed once or twice a day for 50 days. The samples were dissolved and diluted in a certain solvent (a mixed solvent of propylene glycol:ethanol:water=5:3:2) and applied with a swab. Another region was applied with the solvent only as a control. Occurrence of cumulative irritation also was examined.
The degree of skin pigmentation was determined using a chromameter (MINOLTA CR2002) to evaluate the effects. L*A*B* colorimetric system is used to classify color, and an L* value was used as standard in the present invention. The L* value was corrected using white board standard, and measured more than five times at one region, repeatedly. Pigmentation was evenly distributed. Skin color differences (ΔL*) between initial application point and terminal application point were obtained by using the following Mathematical Equation 1, and then using these values, their effects of the applied samples were evaluated.
ΔL*=L*value at terminal application day−L*value at initial application day [Mathematical Equation 1]
ΔL* values were obtained at sample application region and control application region and compared. From the result, the whitening effects of the samples can be evaluated.

[4] = system: brown guinea pigs (Tortoiseshell guinea pigs); test: Cumulative irritation examined in brown guinea pigs; format: in vivo; conditions: topical application for 50 days, guinea pig
Description: as §1

[5] = system: Murine melanoma (B16 F10) cells; test: Cytotoxicity at treatment concentrations in B16 F10 cells; format: cell-based; conditions: 10 μM, 50 μM and 100 μM

OC[C@H]1O[C@@H](Oc2ccc(O)cc2)[C@H](O)[C@@H](O)[C@@H]1O [Arbutin, arbutin]
inhibition at 100 µM [1]: 52% | inhibition at 100 µM [2]: 45% | Whitening effect (ΔL*) ([3]; 1.0 %): 0.55

C[C@@H]1CC[C@H]2[C@@H](C)C(=O)O[C@@H]3O[C@@]4(C)CC[C@@H]1[C@]32OO4 [Artemisinine, artemisinine]
inhibition at 10 µM ([1]; 10 μM): 22% | inhibition at 50 µM ([1]; 50 μM): 50% | inhibition at 100 µM [1]: 65% | Cumulative irritation [4]: no cumulative irritation | inhibition at 10 µM ([2]; 10 μM): 19% | inhibition at 50 µM ([2]; 50 μM): 38% | inhibition at 100 µM [2]: 67% | Whitening effect (ΔL*) ([3]; 0.2 %): 0.40 | Whitening effect (ΔL*) ([3]; 1.0 %): 0.65 | Cytotoxicity [5]: no cytotoxicity
